Experimental data: paper PMC10098062 (Molecular Plant Pathology, 2023)

Target: SstF F299A (SFN-sensing transcription factor, LysR family) (Xanthomonas campestris, UniProt Q8PAP2, F299A)
Test: biochemical

For `C[S+]([O-])CCCCN=C=S` (stereo not shown) [SFN, Sulforaphane], which Kd is on record?
The Kd was 143 µM.
